For two compounds, K cat results are on record in ChEMBL document CHEMBL1145182, “Molecular dynamics simulations of the TEM-1 beta-lactamase complexed with cephalothin” (J Med Chem, 2005).

The assay addresses Beta-lactamase TEM (Escherichia coli) (UniProt P62593). The experiment in a line: Rate of catalysis against TEM-1 beta-lactamase.

Beta-lactamase TEM (Escherichia coli), sequence (P62593 whole entry): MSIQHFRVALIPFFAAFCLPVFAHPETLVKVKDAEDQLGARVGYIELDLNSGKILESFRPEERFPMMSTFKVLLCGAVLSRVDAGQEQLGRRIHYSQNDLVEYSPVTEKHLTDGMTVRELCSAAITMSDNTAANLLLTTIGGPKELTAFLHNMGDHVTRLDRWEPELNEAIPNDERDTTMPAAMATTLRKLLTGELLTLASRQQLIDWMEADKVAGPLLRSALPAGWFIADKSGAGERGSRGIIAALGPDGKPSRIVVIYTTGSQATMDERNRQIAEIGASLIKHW

`CC1(C)S[C@@H]2[C@H](NC(=O)Cc3ccccc3)C(=O)N2[C@H]1C(=O)O`: the K cat is 1280 1/S. For the compound `CC(=O)OCC1=C(C(=O)O)N2C(=O)[C@@H](NC(=O)Cc3cccs3)[C@H]2SC1`, the K cat was 115 1/S.
